# From a melting point compilation (Tetko et al.; mined from patent text by program, amines drawn as free bases though some values may be those of a salt)
# Residues, ends and D or L forms follow the SMILES beside them. *: point of attachment. Cbz = O=C(OCc1ccccc1)*
row,Compound,melting point [°C]
1,Cc1ccc(C2CCN(C(=O)Nc3ccc4nc(CN5CCCC5)ccc4c3)CC2)cc1,214 to 216
2,CCCCc1nc2c(N)nc(C)c(C)c2n1CC(C)(C)NS(C)(=O)=O,90 to 92
3,O=c1ccc(-c2c(-c3ccccc3)nn3ccccc23)nn1-c1ccccc1,170
4,COc1nc(C)nc(NC(=O)NS(=O)(=O)c2cccc3c2OC(C)(C)O3)n1,160 to 168
5,COc1ccc(S(=O)(=O)Nc2ccccc2Nc2ccncc2)cc1,185 to 187
6,COc1cn(-c2ccc(-n3cccn3)cc2F)nc(-c2ccnn2-c2ccccc2F)c1=O,202 to 206
7,COCCOc1ccc(COC(=O)NS(=O)(=O)NCC(C)C)c(Oc2ncc(C(F)(F)F)cc2Cl)c1,160 to 161
8,CSC1CC(c2cc(Cl)c(C)c(Cl)c2)=NNC1=O (centres undefined),112 to 115
9,C[C@H](Nc1nc(Nc2cccc(NS(C)(=O)=O)c2)nc2[nH]cnc12)C(C)(C)C,150 to 153
10,COc1cc(C)nc2c(OCc3c(Cl)ccc(N(C)C(=O)CN4C(=O)c5ccccc5C4=O)c3Cl)cccc12,209 to 210
11,NC1=NC(=O)N(CC2CC2)CC1Br (centres undefined),139 to 143
12,Cc1ccc2c(NCc3ccc(NC(=O)c4ccc(Br)cc4)cc3)nc(Cl)nc2c1,295 to 298
13,COCCN1CCN(C)c2cc(Nc3ncc(Cl)c(N[C@@H]4CCCC[C@H]4NS(C)(=O)=O)n3)c(OC)cc2C1,89
14,O=S(=O)(c1ccc(Br)s1)N1CCN(c2ccc(F)cc2)CC1,123 to 124
15,O=C(CCCc1ccc(-c2ccc(Cl)cc2)cc1)c1ccc(CN2CCCC2)cc1,114 to 115
16,CC1(C)C(C=CC(=O)O)C1C(=O)OCc1ccccc1 (centres undefined),69
17,COc1c(C=NO)c(=O)n(C)c(=O)n1C,127 to 128
18,CCCOc1ccc(NC(C)=O)cc1C1=NC(=O)C2=NC=NC2=N1,320 to 323
19,CCCc1nc2c(N)nc(C)c(C)c2n1CCCCCCS(C)(=O)=O,157 to 158
20,O=C(C[C@@H]1COCCO1)N[C@H]1CC[C@H](CCN2CCN(c3nccc4c3CCO4)CC2)CC1,192
21,Cc1cc(O)ccc1-c1ccc(C=O)c(Cl)c1,125 to 127

row,Compound,melting point [°C]
1,Nc1cc2c(cc1F)OC(=O)CN2,> 250
2,COc1ccccc1N1CCN(CC2=Cc3ccccc3CC2)CC1,84 to 85
3,Cc1ccc(S(=O)(=O)N2CCCCC2)cc1,148 to 150
4,CN1CCN(Cc2cc(C(=O)c3ccc(Cl)cc3)cc(C(C)(C)C)c2O)CC1,131 to 132
5,CCn1cc(C(=O)O)c(=O)c2cc(F)c(-c3ccnc(CN)n3)c(F)c21,285 to 289
6,CCn1cc(O)c(=O)cc1CO,143 to 145
7,COc1cc(Nc2c(C#N)cnc3cc(-c4ccc(CN5CCOCC5)o4)ccc23)c(Cl)cc1Cl,182 to 183
8,Cn1c(=O)c2c(ncn2CC(O)CN2CCN(C(=O)c3ccco3)CC2)n(C)c1=O (centres undefined),100
9,OC(CNC1CC1)c1ccc(Br)cc1 (centres undefined),105 to 107
10,COc1ccc2c(c1)c(-c1cc3cccnc3[nH]1)cn2C,226 to 227
11,CON1C(=O)CC2(CCN(C(=O)C3=CN(Cc4ccccc4)C=CC3)CC2)C1=O,57 to 73
12,COc1cc(Nc2ncnc3cc(OCCCc4ccncc4)c(OC)cc23)c(OC)cc1Cl,205 to 208
13,O=C1NC(=S)NC(=O)C1=Cc1cc(Br)cs1,230
14,COc1c(C)c(OC(=O)c2c(C)c(C)c(OCCCN3C(=O)c4ccccc4S3(O)O)c(C)c2OC)c(C)c(C)c1C(=O)O,222 to 223
15,Cc1c(C)c2c(c(C)c1O)CCC(C)(C#N)O2 (centres undefined),149 to 151
16,CNC(=O)Nc1sc2nc(C)ccc2c1C(=O)N1CCC(N2CCCC3(CCN(C(C)C)C3=O)C2)CC1 (centres undefined),195 to 198
17,COc1cc(NC(=O)OC(C)(C)C)c([N+](=O)[O-])cc1I,171
18,CCCn1c(C(=O)OC)cc(=O)c2oc3ccc(Cl)cc3c(=O)c21,240 to 244
19,COC(=O)C1=C(C(OC)OC)NC(C)=C(C(=O)OC(C)C)C1c1ccccc1[N+](=O)[O-] (centres undefined),143 to 145
20,Nc1ncc(C(F)(F)F)cc1[N+](=O)[O-],110 to 112
21,CN1Cc2c(-c3noc(CCl)n3)ncn2-c2ccsc2C1=O,221 to 223

row,Compound,melting point [°C]
1,COc1ccc(C(=O)O[Si](C)(C)C)cc1,60 to 61
2,CC(C)(C)NCc1ccc(COc2cccc3c2CN(C2CCC(=O)NC2=O)C3=O)cc1 (centres undefined),194 to 196
3,CCc1c(CNc2cccc(N)n2)c(CC)c(CNc2cccc(N)n2)c(CC)c1CNc1cccc(N)n1,164 to 165
4,N#Cc1cc(C#N)cc(Oc2ccnc(Oc3cc(Cl)cc(Cl)c3)n2)c1,196
5,OC(CCC(O)(C(F)(F)F)C(F)(F)F)(C(F)(F)F)C(F)(F)F,96 to 98
6,CCCn1c(=O)c2[nH]cnc2n(CCC)c1=O,201 to 205
7,O=C(Nc1ccc(Cl)cc1)Nc1ccc2c(c1)OC(F)(F)O2,231 to 233
8,Cc1c[nH]c2c(/C=C/C#N)cccc12,225 to 227
9,CCOC(=O)CC[C@H](NC(=O)Oc1ccc(CCCCc2c(N)nc(N)nc2O)s1)C(=O)OCC,96 to 98
10,Cc1nc2c(c3c1[nH]c1ccc(Cl)cc13)C(=O)CC(C)(C)C2,244 to 246
11,Cc1ccc(-c2nc(COc3ccc(CCCn4ccnc4)cc3)co2)s1,83 to 84
12,NC(=O)c1nc(CCl)n(-c2ccc(Cl)cc2C(=O)c2ccccc2)n1,128 to 130
13,COc1ccc2c(c1)CC(CC(C)=O)C2=O (racemic),73
14,CCN(CC)C(=O)NC1CC2c3cccc4[nH]c(C(=O)OCc5ccccc5)c(c34)CC2N(C)C1 (centres undefined),226 to 229
15,COC(=O)CC(=O)c1cc(F)c(OC)c(F)c1,64 to 67
16,COC(=O)c1[nH]c2cc(Cl)ccc2c1-c1ccc(F)cc1,172 to 183
17,Cc1ccc(S(=O)(=O)N(c2ccc(Cl)cc2C(=O)O)C(C)C)cc1,175 to 176
18,COc1ccccc1-n1ccc(=O)c(-c2ccnn2-c2ccccc2)n1,153 to 154
19,CCOC(=O)CSc1ccc([N+](=O)[O-])cc1C1C(C(=O)OC)=C(C)N(C)C(C)=C1C(=O)OC,118
20,CCOC(=O)C1(C(=O)OCC)N(Cc2ccc(OC)cc2OC)C(=O)CC1(C)O (centres undefined),106 to 107
21,COc1ccc2ccc3c(c2c1)C=C(C(=O)O)CO3,226

# Continued, values first:
row,melting point [°C],Compound
1,133 to 135,COC(=O)C(CO)NC(=O)C(Cc1c[nH]c2ccccc12)NC(=O)OCc1ccccc1 (stereo not drawn) (Cbz-Trp-Ser-OMe; configuration not given here)
2,119 to 121,O=C(CCCCCNC(=O)C(=O)c1cn2c3c(cccc13)CCC2)NOCc1ccccc1
3,161 to 163,CCOCc1nc2c(N)nc3ccccc3c2n1CC(C)(C)CS(=O)(=O)NC
4,188 to 190,O=C(O)C(CCc1ccc(Cl)cc1)(Cn1cncn1)c1ccccc1 (centres undefined)
5,165 to 166,CCCn1nc2c(N)nc3ccccc3c2c1CC(C)(C)NC(=O)c1ccc(F)c(F)c1
6,110 to 111,CN(C)CCCn1c(-c2ccc(Br)cc2)csc1=Nc1ccccc1
7,92 to 93.9,O=CN(O)CCCC(O)CS(=O)(=O)c1ccccc1Oc1ccc(OC(F)(F)F)cc1 (centres undefined)
8,147 to 149,CN1C(c2ccccc2)CC(=O)CC1c1ccccc1 (centres undefined)
9,220 to 221,O=C(O)Cn1c(=S)c2ccccc2n(Cc2ccc(Cl)cc2Cl)c1=O
10,158 to 159,Oc1c2c(nn1-c1ccc(C(F)(F)F)cn1)CCc1ccccc1-2
11,118 to 119,COC(=O)Cc1cn(Cc2ccccc2)nc1O
12,139 to 140,CCOC(=O)c1cn(CCc2ccccc2)c2occc2c1=O
13,71,CCOC(=O)C=Cc1ccc(C#N)cc1
14,45 to 46,Cc1cccc(C(=O)OC2CCN(Cc3ccccc3)CC2)c1
15,260 to 263,O=C1NC(=O)C(=Cc2ccc(OCCCN3Cc4ccccc4C3=O)cc2)S1
16,141 to 142,CCOC(=O)C1=C(C)NC(C)=C(C(=O)OCC)C1c1ccccc1/C=C(\C)c1ccccc1
17,91,OC(CCSC(=S)Nc1ccc(Cl)cn1)c1ccccc1 (centres undefined)
18,113 to 115,Clc1ccc(-c2nnc(CSCCOc3ccccc3)o2)cn1

row,melting point [°C],Compound
1,58 to 60,CC(C)(C)OC(=O)N1C2CCC1CN(Cc1ccccc1)C2
2,92 to 93,CN(C)Cc1cccc(OCCCNc2nc(N)n[nH]2)c1
3,226 to 227,O=C(O)C1=C(c2ccccc2)c2cc(Cl)ccc2OC1CC(F)(F)F (centres undefined)
4,57 to 70,CC(C)[C@H](S)C(=O)NC(C)(C)C(=O)N[C@@H](COCc1ccccc1)C(=O)O
5,240 to 242,COc1nc2c(N)nc3ccccc3c2n1Cc1ccccc1
6,140,O=C(Nc1cccc(Cc2ccccc2)c1)c1ccn2c1CSC2c1cccnc1 (centres undefined)
7,154 to 155,COc1ccc(-c2nn(Cc3ccccc3)c(=O)cc2-c2ccncc2)cc1
8,105 to 106,CS(=O)(=O)c1ccccc1C#N
9,140 to 143,NC(CNCCO)(CC(=O)O)c1ccccc1 (centres undefined)
10,158,CCOC(=O)c1cnc2c(OC)nccc2c1Nc1ccccc1C
11,90 to 91,C1=CCN(C(c2ccccc2)c2ccccc2)C1
12,224 to 226,CC(=O)Nc1ccc(C(=S)SCC(=O)O)cc1
13,154 to 156,O=c1ccccn1CC1(O)CCN(Cc2ccc(F)cc2)CC1
14,> 106,CCCCc1nn(Cc2ccccc2C(=O)O)c(=O)n1Cc1ccc(-c2ccccc2-c2nnn[nH]2)cc1
15,163 to 165,CCCc1ccccc1OCCCOc1ccc2c(c1CCC)OC(CCC(=O)O)(CCC(=O)O)CC2=O
16,220 to 222,O=C(O)Cc1c(Cl)nc(-c2cccc(O)c2)n1Cc1ccccc1
17,139 to 140,O=C1NC(C(=O)NCCO[N+](=O)[O-])C(c2ccccc2)S1 (centres undefined)
18,135,CC(C)(C)c1cccc(S(=O)(=O)n2c(CCCCC(=O)O)cc3cc(C(F)(F)F)ccc32)c1
